Reference: paper PMC12041767 (Journal of immunology (Baltimore, Md. : 1950), 2025)

Tests used:
HLA-E*01:03 = HLA-E*01:03 (Homo sapiens, UniProt P13747); assay type: binding; details: S/P relative to positive control […] or […], tested at least two times, median, Figure 1
NKG2A/CD94 = NKG2A/CD94 (Homo sapiens, UniProt P26715+Q13241); assay type: binding
NKG2A/CD94, sequence (P26715 whole entry): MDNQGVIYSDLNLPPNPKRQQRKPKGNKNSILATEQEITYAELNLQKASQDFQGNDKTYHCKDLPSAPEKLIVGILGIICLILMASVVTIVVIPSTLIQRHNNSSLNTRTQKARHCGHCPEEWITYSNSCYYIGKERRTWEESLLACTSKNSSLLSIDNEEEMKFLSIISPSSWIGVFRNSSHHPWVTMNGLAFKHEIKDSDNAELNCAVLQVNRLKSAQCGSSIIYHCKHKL
NKG2A/CD94, sequence (Q13241 whole entry): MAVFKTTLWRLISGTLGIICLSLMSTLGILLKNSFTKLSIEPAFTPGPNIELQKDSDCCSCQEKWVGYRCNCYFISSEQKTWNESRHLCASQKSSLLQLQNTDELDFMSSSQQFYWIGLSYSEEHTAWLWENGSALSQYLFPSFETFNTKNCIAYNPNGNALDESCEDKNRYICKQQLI

Sequence	Peptide binding affinity for HLA-E*01:03 (signal to positive, S/P, ratio), in words (HLA-E*01:03)	Interaction of thermal exchanged HLA-E TM/peptide complex with NKG2A/CD94, in words (NKG2A/CD94)
VMAPRTLVL [Mtb55-VL9-hybrid]	increased the affinity	could interact
VMTPRTLTL [Mtb34-VL9-hybrid]	increased the affinity	
